Source: US12234211B2, “Cycloolefin substituted heteroaromatic compounds and their use” (HUTCHISON MEDIPHARMA LIMITED, priority 2017, dated 2025)

molecular target: T1, IDH1-R132H (Homo sapiens, UniProt O75874, R132H); test: Fluorescent determination of IDH1-R132H cell activity (2-HG in U87MGR132H cells); assay type: cell-based; settings: 2-HG inhibition in U87MGR132H cells transfected with IDH1-R132H mutant plasmid
T1 construct: expressed in transfected cells; host or cells: U87MG cells (U87MGR132H)
T1 sequence (O75874 whole entry R132H): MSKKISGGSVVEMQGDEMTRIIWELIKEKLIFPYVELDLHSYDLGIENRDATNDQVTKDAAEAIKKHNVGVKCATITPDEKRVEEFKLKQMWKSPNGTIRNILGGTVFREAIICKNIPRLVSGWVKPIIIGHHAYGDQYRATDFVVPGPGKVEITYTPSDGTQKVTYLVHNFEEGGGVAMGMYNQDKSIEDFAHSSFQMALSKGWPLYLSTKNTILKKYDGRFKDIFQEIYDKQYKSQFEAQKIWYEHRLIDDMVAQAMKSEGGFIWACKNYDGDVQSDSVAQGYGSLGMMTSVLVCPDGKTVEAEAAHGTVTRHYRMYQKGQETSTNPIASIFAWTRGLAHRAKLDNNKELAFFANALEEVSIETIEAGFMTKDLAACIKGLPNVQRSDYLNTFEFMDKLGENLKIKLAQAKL

Row | Compound | IC50
1 | C[C@@H](Nc1nc(NC2CC(F)(F)C2)nc(C2=C(F)C(O)CCC2)n1)C(F)(F)F (mixture of isomers) [Compound 31] | 0.28 µM
2 | C[C@@H](Nc1nc(NC2CCCCC2)nc(C2=CC(O)CCC2)n1)C(F)(F)F (mixture of isomers) [Compound 136] | 1.34 µM
3 | C[C@@H](Nc1nc(NCC2CC(F)(F)C2)nc(C2=C(F)C(O)CCC2)n1)C(F)(F)F (mixture of isomers) [Compound 13] | 2.08 µM
4 | C[C@@H](CF)Nc1nc(N[C@H](C)C(F)(F)F)nc(C2=C(F)C(O)CCC2)n1 (mixture of isomers) [Compound 170] | 6.93 µM
5 | CC(C)Nc1nc(Nc2ccc3ccnn3c2)nc(C2=C(F)C(O)CCC2)n1 (racemic) [Compound 200] | > 10 µM
6 | C[C@@H](Nc1nc(NCC2CC2)nc(C2=C(F)C(O)C(F)CC2)n1)C(F)(F)F (single isomer, unassigned) [Compound 226] | 5.12 µM
7 | CCONc1nc(Nc2ccnc(C(F)(F)F)c2)nc(C2=C(F)C(O)C(F)(F)CC2)n1 (centres unmarked) [Compound 212] | > 10 µM
8 | OC1C(F)=C(c2nc(Nc3ccnc(C(F)(F)F)c3)nc(N3CC(F)(F)C3)n2)CCC1(F)F (single isomer, unassigned) [Compound 221] | > 10 µM
9 | Cc1cc(Nc2nc(NOC(C)(C)C)nc(C3=C(F)C(O)CCC3)n2)ccn1 (centres unmarked) [Compound 204] | > 10 µM
10 | C[C@@H](Nc1nc(NCC(F)(F)F)nc(C2=C(F)C(O)C(F)(F)CC2)n1)C(F)(F)F (mixture of isomers) [Compound 245] | 1.5 µM

molecular target: T2, IDH2-R140Q (Homo sapiens, UniProt P48735, R140Q); test: Fluorescent determination of IDH2-R140Q cell activity (2-HG in U87MGR140Q cells); assay type: cell-based; settings: 72 hours incubation, read-out: IC50 (2-HG inhibition)
T2 construct: expressed in transfected cells
T2 sequence (P48735 40-452 R140Q): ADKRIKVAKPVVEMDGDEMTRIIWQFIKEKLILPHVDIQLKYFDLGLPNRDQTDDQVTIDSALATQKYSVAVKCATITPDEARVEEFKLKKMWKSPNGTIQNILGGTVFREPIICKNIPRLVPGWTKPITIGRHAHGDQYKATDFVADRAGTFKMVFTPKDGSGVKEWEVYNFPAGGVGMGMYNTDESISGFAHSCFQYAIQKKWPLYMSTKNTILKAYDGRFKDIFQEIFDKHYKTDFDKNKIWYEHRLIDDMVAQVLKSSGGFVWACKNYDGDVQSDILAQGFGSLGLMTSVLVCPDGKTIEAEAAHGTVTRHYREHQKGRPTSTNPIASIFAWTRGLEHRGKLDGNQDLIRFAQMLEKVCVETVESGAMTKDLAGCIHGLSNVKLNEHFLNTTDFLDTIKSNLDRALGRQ
Method: Enzyme reaction solution: 1 mM nicotinamide adenine dinucleotide (NAD), 0.6 ng/μL D-2-hydroxyglutarate dehydrogenase (D2HGDH), 0.8 U/mL lipoamidase dehydrogenase (Diaphorase) and 60 μM Resazurin in 40 mM Tris.HCl pH 8.8 assay buffer.
Standard curve stock solution: The standard of 2-HG sodium salt was serially diluted in serum-free MEM medium to make a standard curve stock solution.
100 μL of U87MGR140Q cells were seeded at a density of 6×10^4/mL per well in a 96-well plate a.
From each well of 96-well plate a, 50 μL of the culture supernatant was transferred to the corresponding well of 96-well plate b; at the same time, 50 μL of standard curve stocking solution was added to other wells of 96-well plate b. Then 10 μl of 360 mM hydrochloric acid was added to all the wells. After shaking and mixing, the plate was placed on ice for 10 minutes, and then 10 μl of 420 mM Tris-base was added. After shaking and mixing, the plate was placed on ice for additional 5 minutes. Then the plate was centrifuged at 2500 rpm for 10 minutes.
After centrifuging, from each well of 96-well plate b, 20 μL of the supernatant was transferred to 96-well plate c. An additional 80 μL of the enzyme reaction solution was added to each well and incubated at 25° C. for 90 minutes.
A standard curve of the fluorescence value vs. the corresponding 2-HG concentration was made, and the 2-HG concentration corresponding to each concentration point of the compound was calculated, then the inhibition ratio was calculated, and the data was analyzed using XLfit5 (ID Business Solutions Limited) software to obtain the IC50 value.
The inhibition ratio was calculated as follows: Inhibition Ratio (IH %)=(1-2-HG concentration of test compound treated cells/2-HG concentration of control cells)×100%.

Row | Compound | IC50
11 | C[C@@H](Nc1nc(NC2CC(F)(F)C2)nc(C2=C(F)C(O)CCC2)n1)C(F)(F)F (mixture of isomers) [Compound 31] | 110 nM
12 | C[C@@H](Nc1nc(NC2CCCCC2)nc(C2=CC(O)CCC2)n1)C(F)(F)F (mixture of isomers) [Compound 136] | 296 nM
13 | C[C@@H](Nc1nc(NCC2CC(F)(F)C2)nc(C2=C(F)C(O)CCC2)n1)C(F)(F)F (mixture of isomers) [Compound 13] | 373 nM
14 | C[C@@H](CF)Nc1nc(N[C@H](C)C(F)(F)F)nc(C2=C(F)C(O)CCC2)n1 (mixture of isomers) [Compound 170] | 1380 nM
15 | CC(C)Nc1nc(Nc2ccc3ccnn3c2)nc(C2=C(F)C(O)CCC2)n1 (racemic) [Compound 200] | 632 nM
16 | C[C@@H](Nc1nc(NCC2CC2)nc(C2=C(F)C(O)C(F)CC2)n1)C(F)(F)F (single isomer, unassigned) [Compound 226] | 361 nM
17 | CCONc1nc(Nc2ccnc(C(F)(F)F)c2)nc(C2=C(F)C(O)C(F)(F)CC2)n1 (centres unmarked) [Compound 212] | 63 nM
18 | OC1C(F)=C(c2nc(Nc3ccnc(C(F)(F)F)c3)nc(N3CC(F)(F)C3)n2)CCC1(F)F (single isomer, unassigned) [Compound 221] | 487 nM
19 | Cc1cc(Nc2nc(NOC(C)(C)C)nc(C3=C(F)C(O)CCC3)n2)ccn1 (centres unmarked) [Compound 204] | 209 nM
20 | C[C@@H](Nc1nc(N[C@H](C)C(F)(F)F)nc(C2=CCCCC2)n1)C(F)(F)F [Compound 186, 6-(Cyclohex-1-en-1-yl)-N^2,N^4-bis((R)-1,1,1-trifluoropropan-2-yl)-1,3,5-triazine-2,4-diamine] | 677 nM
21 | [2H]C1([2H])CCC(c2nc(Nc3ccnc(C(F)(F)F)c3)nc(NC([2H])(C([2H])([2H])[2H])C([2H])([2H])[2H])n2)=C(F)C1O (centres unmarked) [Compound 86] | 21 nM
22 | CC(C)Nc1nc(N[C@H](C)C(F)(F)F)nc(C2=CCC(F)CC2)n1 (mixture of isomers) [Compound 38] | 1620 nM
23 | [2H]C([2H])([2H])C([2H])(Nc1nc(N[C@@H](C)C(F)(F)F)nc(C2=C(F)C(O)CCC2)n1)C([2H])([2H])[2H] (some centres unmarked) [Compound 53] | 131 nM
24 | C[C@@H](Nc1nc(N[C@H]2CCOC2)nc(C2=CC(O)CCC2)n1)C(F)(F)F (some centres unmarked) [Compound 180] | 531 nM
25 | C[C@@H](Nc1nc(NOC(C)(C)C)nc(C2=C(F)C(O)CCC2)n1)C(F)(F)F (mixture of isomers) [Compound 172] | 344 nM
26 | C[C@@H](Nc1nc(NC2CCCC2)nc(C2=C(F)C(O)CCC2)n1)C(F)(F)F (mixture of isomers) [Compound 10] | 113 nM
27 | CC(C)(O)CNc1nc(Nc2ccnc(C(F)(F)F)c2)nc(C2=C(F)C(O)CCC2)n1 (centres unmarked) [Compound 70] | 112 nM
28 | CC(C)Nc1nc(N[C@H](C)C(F)(F)F)nc(C2=CC(F)CCC2)n1 (mixture of isomers) [Compound 36] | 181 nM
29 | CC(C)Nc1nc(N[C@H](C)C(F)(F)F)nc(C2=CC(=O)CCC2)n1 [Compound 122, (R)-3-(4-(isopropylamino)-6-((1,1,1-trifluoropropan-2-yl)amino)-1,3,5-triazin-2-yl)cyclohex-2-en-1-one] | 1340 nM
30 | [2H]C1([2H])CCC(c2nc(NC3CC(F)(F)C3)nc(N[C@@H](C)C(F)(F)F)n2)=C(F)C1([2H])O (mixture of isomers) [Compound 90] | 65 nM
31 | CC(C)Nc1nc(N[C@H](C)C(F)(F)F)nc(C2=CCCC2)n1 [Compound 189] | 1410 nM
32 | C[C@@H](Nc1nc(Nc2ccn3ccnc3c2)nc(C2=C(F)C(O)CCC2)n1)C(F)(F)F (some centres unmarked) [Compound 44] | 3150 nM
33 | C[C@H](Nc1nc(N[C@@H](C)C(F)(F)F)nc(C2=C(F)C(O)CCC2)n1)C(F)(F)F (some centres unmarked) [Compound 69] | 173 nM
34 | CC1CC1Nc1nc(NC2CC(F)(F)C2)nc(C2=C(F)C(O)CCC2)n1 (centres unmarked) [Compound 50] | 72 nM
35 | CC(C)Nc1nc(NC2CC(F)(F)C2)nc(C2=C(F)C(O)CCC2)n1 (centres unmarked) [Compound 28] | 123 nM

Row | Compound | IC50
36 | [2H]C1([2H])CCC(c2nc(NC(C)C)nc(NC3CC(F)(F)C3)n2)=C(F)C1([2H])O (racemic) [Compound 92] | 143 nM
37 | CC(CO)Nc1nc(N[C@H](C)C(F)(F)F)nc(C2=CC(O)CCC2)n1 (mixture of isomers) [Compound 184] | 3780 nM
38 | C[C@@H](Nc1nc(NC2COC2)nc(C2=CC(O)CCC2)n1)C(F)(F)F (some centres unmarked) [Compound 178] | 934 nM
39 | CC(C)Nc1nc(N[C@H](C)C(F)(F)F)nc(C2=CCCC(O)C2)n1 (mixture of isomers) [Compound 144, 3-(4-(Isopropylamino)-6-(((R)-1,1,1-trifluoropropan-2-yl)amino)-1,3,5-triazin-2-yl)cyclohex-3-en-1-ol] | 2750 nM
40 | CCCNc1nc(N[C@H](C)C(F)(F)F)nc(C2=CC(O)CCC2)n1 (mixture of isomers) [Compound 133] | 174 nM
41 | C1=C(c2nc(NCC3CC3)nc(NCC3CC3)n2)CCCC1 [Compound 187] | 742 nM
42 | [2H]C1(O)CCCC(c2nc(NC(C)C)nc(N[C@H](C)C(F)(F)F)n2)=C1F (mixture of isomers) [Compound 23] | 192 nM
43 | C[C@H](CF)Nc1nc(NC2CC(F)(F)C2)nc(C2=C(F)C(O)CCC2)n1 (some centres unmarked) [Compound 43] | 328 nM
44 | C[C@@H](Nc1nc(NCC(C)(C)O)nc(C2=CCCCC2)n1)C(F)(F)F [Compound 188] | 5020 nM
45 | CC[C@@H](C)Nc1nc(N[C@H](C)C(F)(F)F)nc(C2=C(F)C(O)CCC2)n1 (mixture of isomers) [Compound 164] | 176 nM
46 | C[C@@H](Nc1nc(NCC(F)(F)F)nc(C2=C(F)C(O)C(F)(F)CC2)n1)C(F)(F)F (mixture of isomers) [Compound 208] | 102 nM
47 | [2H]C1(O)CCCCC(c2nc(NC3CC(F)(F)C3)nc(NC3CC(F)(F)C3)n2)=C1F (centres unmarked) [Compound 22] | 336 nM
48 | C[C@@H](Nc1nc(NCC(F)(F)F)nc(C2=CC(O)CCC2)n1)C(F)(F)F (mixture of isomers) [Compound 154] | 202 nM
49 | CC(C)Nc1nc(N[C@H](C)C(F)(F)F)nc(C2=CCCCC2)n1 [Compound 190, (R)-6-(cyclohex-1-en-1-yl)-N^2-isopropyl-N^4-(1,1,1-trifluoropropan-2-yl)-1,3,5-triazine-2,4-diamine] | 413 nM
50 | C[C@@H](Nc1nc(NC2CC2)nc(C2=C(F)C(O)CCC2)n1)C(F)(F)F (mixture of isomers) [Compound 162] | 177 nM
51 | C[C@@H](Nc1nc(NC2CC23CC3)nc(C2=C(F)C(O)CCC2)n1)C(F)(F)F (mixture of isomers) [Compound 42] | 152 nM
52 | C[C@@H](Nc1nc(NCC2CC2)nc(C2=CCCCC2)n1)C(F)(F)F [Compound 192] | 314 nM
53 | C[C@@H](Nc1nc(N[C@@H]2CCC[C@@H]2O)nc(C2=CC(O)CCC2)n1)C(F)(F)F (some centres unmarked) [Compound 182] | 1230 nM
54 | C[C@@H](Nc1nc(NCC(C)(C)O)nc(C2=CC(O)CCC2)n1)C(F)(F)F (mixture of isomers) [Compound 131] | 2800 nM
55 | C[C@@H](Nc1nc(NC2CC3(C2)CC(F)(F)C3)nc(C2=C(F)C(O)CCC2)n1)C(F)(F)F (mixture of isomers) [Compound 160] | 180 nM
56 | COC1C=C(c2nc(N[C@H](C)C(F)(F)F)nc(N[C@H](C)C(F)(F)F)n2)CCC1 (mixture of isomers) [Compound 140, 6-(3-Methoxycyclohex-1-en-1-yl)-N^2,N^4-bis((R)-1,1,1-trifluoropropan-2-yl)-1,3,5-triazine-2,4-diamine] | 2390 nM
57 | CC[C@H](C)Nc1nc(N[C@H](C)C(F)(F)F)nc(C2=C(F)C(O)CCC2)n1 (mixture of isomers) [Compound 165] | 198 nM
58 | C[C@@H](Nc1nc(N[C@H](C)C2CC2)nc(C2=CCCCC2)n1)C1CC1 [Compound 191] | 999 nM
59 | C[C@@H](Nc1nc(NC2CC2)nc(C2=CC(O)CCC2)n1)C(F)(F)F (mixture of isomers) [Compound 129] | 171 nM
